Assay type in all cases: cell-based
One assay deals with T1, ABCB4 WT (Homo sapiens, UniProt P21439).
T1 construct: expressed in transfected cells
Description: ABCB4 WT assay: HiBit protein expression. The conditions noted are these: HEK-293 cells stably expressing HiBit-tagged ABCB4 WT; 24 h treatment; top concentration 30 μM; read-out: ABCB4 WT EC50, Emax. In short, it runs like this:
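HEK-293 cells stably expressing HiBit-tagged human ABCB4 WT, treated 24 h at 37 °C with 11-dose 3-fold dilutions, top final 30 μM in 0.3% DMSO. HiBit lytic reagent luminescence read after 1 h at 25 °C; Emax and EC50 derived.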
On the technique in general: The HiBiT peptide binds its large partner to form an active luciferase.

In a further assay the target is T2, ABCA4 P1380L (Homo sapiens, UniProt P78363, P1380L).
T2 construct: expressed in transfected cells
T2 sequence (P78363 whole entry P1380L): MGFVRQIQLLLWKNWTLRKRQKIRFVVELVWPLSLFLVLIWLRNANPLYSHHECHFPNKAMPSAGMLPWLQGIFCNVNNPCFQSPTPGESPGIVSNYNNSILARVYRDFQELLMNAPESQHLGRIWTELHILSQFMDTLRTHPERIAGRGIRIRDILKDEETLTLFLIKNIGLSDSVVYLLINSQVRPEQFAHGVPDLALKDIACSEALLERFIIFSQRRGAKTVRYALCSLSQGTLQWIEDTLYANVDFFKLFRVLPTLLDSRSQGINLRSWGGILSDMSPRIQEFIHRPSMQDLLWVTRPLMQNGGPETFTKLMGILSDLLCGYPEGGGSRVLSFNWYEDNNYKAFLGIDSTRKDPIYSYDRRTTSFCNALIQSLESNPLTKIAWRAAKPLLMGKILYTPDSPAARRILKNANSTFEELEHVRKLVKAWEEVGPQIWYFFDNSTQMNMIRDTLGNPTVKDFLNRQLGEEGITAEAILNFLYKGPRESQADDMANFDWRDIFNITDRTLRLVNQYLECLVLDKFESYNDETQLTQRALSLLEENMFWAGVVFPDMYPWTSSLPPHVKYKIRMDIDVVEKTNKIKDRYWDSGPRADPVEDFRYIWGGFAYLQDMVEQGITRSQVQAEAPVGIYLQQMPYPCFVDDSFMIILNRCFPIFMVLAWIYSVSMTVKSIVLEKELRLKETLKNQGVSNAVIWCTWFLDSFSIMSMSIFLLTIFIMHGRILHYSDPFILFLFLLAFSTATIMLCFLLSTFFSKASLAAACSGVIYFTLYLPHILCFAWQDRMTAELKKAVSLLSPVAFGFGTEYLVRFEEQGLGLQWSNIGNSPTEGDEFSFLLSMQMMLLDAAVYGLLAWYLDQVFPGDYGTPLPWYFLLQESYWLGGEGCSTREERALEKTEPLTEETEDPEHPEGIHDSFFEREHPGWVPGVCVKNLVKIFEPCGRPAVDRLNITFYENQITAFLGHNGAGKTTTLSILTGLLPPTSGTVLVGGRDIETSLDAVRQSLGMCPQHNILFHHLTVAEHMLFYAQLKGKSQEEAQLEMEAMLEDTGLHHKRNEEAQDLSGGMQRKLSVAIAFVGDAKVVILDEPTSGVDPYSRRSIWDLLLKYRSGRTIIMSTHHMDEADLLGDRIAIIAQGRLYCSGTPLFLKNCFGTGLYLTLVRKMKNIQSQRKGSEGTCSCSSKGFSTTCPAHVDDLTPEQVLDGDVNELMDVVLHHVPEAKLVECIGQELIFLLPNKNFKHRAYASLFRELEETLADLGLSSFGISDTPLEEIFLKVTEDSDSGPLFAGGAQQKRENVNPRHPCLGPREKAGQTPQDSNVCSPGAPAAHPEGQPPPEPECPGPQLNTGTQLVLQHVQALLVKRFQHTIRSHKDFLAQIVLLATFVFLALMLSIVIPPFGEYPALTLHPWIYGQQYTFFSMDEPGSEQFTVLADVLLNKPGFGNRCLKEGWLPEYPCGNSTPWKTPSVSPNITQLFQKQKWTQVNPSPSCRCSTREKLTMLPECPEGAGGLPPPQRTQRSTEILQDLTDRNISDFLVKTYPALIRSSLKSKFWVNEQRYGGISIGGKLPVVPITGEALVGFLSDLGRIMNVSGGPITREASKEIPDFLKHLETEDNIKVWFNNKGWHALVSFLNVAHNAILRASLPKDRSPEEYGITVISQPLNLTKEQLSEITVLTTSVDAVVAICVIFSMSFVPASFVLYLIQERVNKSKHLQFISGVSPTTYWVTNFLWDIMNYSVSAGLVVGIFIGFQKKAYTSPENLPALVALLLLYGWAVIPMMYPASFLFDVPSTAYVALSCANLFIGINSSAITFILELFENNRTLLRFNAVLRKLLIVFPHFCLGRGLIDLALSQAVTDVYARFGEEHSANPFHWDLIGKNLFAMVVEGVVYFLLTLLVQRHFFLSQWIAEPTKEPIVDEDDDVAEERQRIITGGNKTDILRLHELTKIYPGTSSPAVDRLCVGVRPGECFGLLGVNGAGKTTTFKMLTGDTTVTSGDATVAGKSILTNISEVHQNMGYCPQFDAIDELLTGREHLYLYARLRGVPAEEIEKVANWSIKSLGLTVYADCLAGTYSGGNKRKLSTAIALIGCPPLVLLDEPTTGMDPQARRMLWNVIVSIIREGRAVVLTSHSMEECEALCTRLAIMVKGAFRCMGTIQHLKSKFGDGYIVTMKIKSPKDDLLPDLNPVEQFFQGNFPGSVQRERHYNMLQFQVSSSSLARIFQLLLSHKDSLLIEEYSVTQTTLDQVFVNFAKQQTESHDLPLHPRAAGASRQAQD
Description: A4 correction dose-response assay: ABCA4 P1380L HiBit protein expression. Conditions: HEK-293 cells stably expressing HiBit-tagged ABCA4 P1380L; 24 h treatment; top concentration 30 μM; read-out: ABCA4 P1380L EC50, Emax. In short, it runs like this:
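Cells transfected with HiBit-tagged human ABCA4 P1380L cDNA were treated for 24 h at 37°C with an eleven-point dilution series (top final 30 μM, 0.3% DMSO).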

The target in another assay is T3, ABCD2 WT (Homo sapiens, UniProt Q9UBJ2).
T3 construct: expressed in transfected cells
T3 sequence (Q9UBJ2 1-740): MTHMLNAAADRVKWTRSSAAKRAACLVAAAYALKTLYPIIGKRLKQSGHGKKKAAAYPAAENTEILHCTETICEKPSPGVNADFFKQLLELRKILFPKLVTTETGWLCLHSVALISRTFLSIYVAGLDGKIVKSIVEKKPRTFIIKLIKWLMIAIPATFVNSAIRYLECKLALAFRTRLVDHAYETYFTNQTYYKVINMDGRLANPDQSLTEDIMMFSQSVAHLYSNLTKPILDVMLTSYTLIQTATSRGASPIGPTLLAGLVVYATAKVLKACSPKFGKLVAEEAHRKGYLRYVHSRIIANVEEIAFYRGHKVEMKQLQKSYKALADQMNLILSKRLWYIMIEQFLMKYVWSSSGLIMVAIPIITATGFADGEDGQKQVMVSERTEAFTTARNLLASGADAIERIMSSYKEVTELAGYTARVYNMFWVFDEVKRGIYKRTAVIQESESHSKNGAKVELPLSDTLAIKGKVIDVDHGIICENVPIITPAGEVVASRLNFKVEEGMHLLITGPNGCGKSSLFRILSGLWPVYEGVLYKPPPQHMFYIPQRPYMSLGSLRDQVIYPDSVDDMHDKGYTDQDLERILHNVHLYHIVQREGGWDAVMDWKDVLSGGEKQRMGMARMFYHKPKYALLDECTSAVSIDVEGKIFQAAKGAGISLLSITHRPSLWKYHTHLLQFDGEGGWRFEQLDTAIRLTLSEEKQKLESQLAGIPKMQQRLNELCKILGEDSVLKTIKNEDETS
Description: D2 correction dose-response assay: ABCD2 WT HiBit protein expression. Conditions: HEK-293/ABCD2 WT cells, 24 hours treatment, HiBit luminescence; class combines EC50 and Mean MaxAct (fold); read-out: ABCD2 WT EC50, Emax. Summed up: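 HEK-293 cells stably expressing HiBit-tagged human ABCD2 WT were treated with 11 doses (3-fold dilutions, top final 30 μM, 0.3% DMSO) for 24 h at 37 °C. Expression was measured by HiBit lytic luminescence after 1 h at 25 °C, giving EC50 and Emax.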

T1 sequence (P21439 whole entry): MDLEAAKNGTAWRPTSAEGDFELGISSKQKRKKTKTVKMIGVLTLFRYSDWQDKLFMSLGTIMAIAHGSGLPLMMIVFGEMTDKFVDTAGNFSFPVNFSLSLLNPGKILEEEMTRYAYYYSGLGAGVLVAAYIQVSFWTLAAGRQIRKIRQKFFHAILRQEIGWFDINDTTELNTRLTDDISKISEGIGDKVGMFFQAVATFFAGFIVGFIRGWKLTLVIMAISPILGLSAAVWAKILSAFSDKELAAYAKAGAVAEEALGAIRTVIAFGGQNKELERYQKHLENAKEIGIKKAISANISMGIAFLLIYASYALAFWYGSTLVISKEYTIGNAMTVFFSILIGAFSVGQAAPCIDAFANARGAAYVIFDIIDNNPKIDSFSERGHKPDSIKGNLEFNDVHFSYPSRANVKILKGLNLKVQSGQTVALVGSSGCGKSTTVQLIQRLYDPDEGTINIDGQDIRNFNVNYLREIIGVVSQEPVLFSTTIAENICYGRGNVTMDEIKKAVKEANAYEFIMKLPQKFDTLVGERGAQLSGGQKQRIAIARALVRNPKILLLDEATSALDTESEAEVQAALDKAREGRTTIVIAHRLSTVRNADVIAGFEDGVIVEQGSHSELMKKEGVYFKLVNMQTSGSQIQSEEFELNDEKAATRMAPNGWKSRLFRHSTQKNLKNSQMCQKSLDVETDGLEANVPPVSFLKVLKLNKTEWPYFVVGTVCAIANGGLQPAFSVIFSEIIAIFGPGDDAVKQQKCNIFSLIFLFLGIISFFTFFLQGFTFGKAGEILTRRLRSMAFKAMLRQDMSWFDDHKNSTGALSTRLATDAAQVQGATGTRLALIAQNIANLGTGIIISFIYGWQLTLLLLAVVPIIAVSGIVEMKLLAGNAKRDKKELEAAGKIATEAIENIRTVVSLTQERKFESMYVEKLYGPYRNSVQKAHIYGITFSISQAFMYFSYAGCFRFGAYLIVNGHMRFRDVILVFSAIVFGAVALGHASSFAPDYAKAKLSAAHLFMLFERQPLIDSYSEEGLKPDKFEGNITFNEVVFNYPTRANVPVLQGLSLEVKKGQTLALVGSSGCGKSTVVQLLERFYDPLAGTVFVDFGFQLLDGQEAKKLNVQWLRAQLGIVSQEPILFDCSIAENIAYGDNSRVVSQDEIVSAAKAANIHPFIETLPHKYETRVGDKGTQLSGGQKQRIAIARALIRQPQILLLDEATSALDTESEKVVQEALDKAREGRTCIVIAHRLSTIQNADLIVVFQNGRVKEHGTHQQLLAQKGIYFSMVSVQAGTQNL

The term EC50 denotes the concentration that produces a half-maximal response. In the case of `Cc1cc(C)c(Oc2nc(-c3cncc(Cl)c3)ccc2N(C)S(=O)(=O)c2cccnc2)c(C)c1` [Compound I-69], the EC50 at ABCB4 WT was below 25 µM; on ABCA4 P1380L it was 1 to 10 µM; at ABCD2 WT, above 25 µM.

On to `Cc1cc(C)c(Oc2nc(-c3cncc(Cl)c3)ccc2NS(=O)(=O)c2cnn(C)c2)c(C)c1` [Compound I-72], for which the values for the EC50 on ABCB4 WT, on ABCA4 P1380L and on ABCD2 WT were at least 25 µM, above 25 µM and below 1 µM, respectively.

In the case of `Cc1cc(C)c(Oc2nc(-c3cncc(Cl)c3)cnc2S(N)(=O)=O)c(C)c1Cl` [Compound I-90], the EC50 at ABCB4 WT, at ABCA4 P1380L and on ABCD2 WT was 1 to 10 µM throughout.

In the case of `Cc1cc(C)c(Oc2cc(-c3cncc(Cl)c3)cnc2NS(=O)(=O)c2cnn(C)c2)c(C)c1` [Compound I-61], the concentration giving a half-maximal response (EC50) at ABCB4 WT is at least 25 µM; at ABCA4 P1380L it was above 25 µM; at ABCD2 WT it was 1 to 10 µM.

In the case of `Cc1cc(C)c(Oc2nc(-c3cncc(Cl)c3)ccc2NS(=O)(=O)c2cccnc2)c(C)c1` [Compound I-71], the EC50 on ABCB4 WT was at least 25 µM; at ABCA4 P1380L, above 25 µM; at ABCD2 WT, below 25 µM.

In the case of `Cc1cc(C)c(Oc2nc(N3CC4(C3)CN(S(=O)(=O)C3CC3)C4)ccc2NS(C)(=O)=O)c(C)c1` [Compound I-43], the EC50 is at least 25 µM at ABCB4 WT, above 25 µM at ABCA4 P1380L and above 25 µM on ABCD2 WT.

On to `Cc1cc(C)c(Oc2nc(-c3cncc(Cl)c3)ccc2NS(=O)(=O)c2cnn(C)c2)c(C2CC2)c1` [Compound I-58], for which the EC50 is at least 25 µM at ABCB4 WT, above 25 µM on ABCA4 P1380L and above 25 µM at ABCD2 WT.

Take `Cc1cc(C)c(Oc2nc(-c3cncc(Cl)c3)ccc2NS(=O)(=O)Cc2ccccn2)c(C)c1` [Compound I-62]: the EC50 at ABCB4 WT was at least 25 µM; on ABCA4 P1380L, above 25 µM; on ABCD2 WT, below 1 µM.

Turning to `Cc1cc(C)c(Oc2nc(-c3cncc(C(N)=O)c3)ccc2NS(C)(=O)=O)c(C2CC2)n1` [Compound I-1], the EC50 was at least 25 µM on ABCB4 WT, below 1 µM on ABCA4 P1380L and 1 to 10 µM at ABCD2 WT.

Turning to `Cc1cc(C)c(Oc2nc(-c3cncc(Cl)c3)ccc2S(=O)(=O)NC(c2ccccn2)C(F)(F)F)c(C)c1` (single isomer, unassigned) [Compound I-80], the values for the EC50 on ABCB4 WT, at ABCA4 P1380L and at ABCD2 WT were at least 25 µM, above 25 µM and 1 to 10 µM, respectively.

In the case of `Cc1cc(C)c(Oc2nc(-c3cncc(Cl)c3)ncc2S(N)(=O)=O)c(C)c1Cl` [Compound I-93], the EC50 is at least 25 µM on ABCB4 WT, 1 to 10 µM at ABCA4 P1380L and 1 to 10 µM at ABCD2 WT.

For `Cc1cc(C)c(Oc2nc(-c3cncc(Cl)c3)ccc2N2CCCS2(=O)=O)c(C)c1` [Compound I-67], the EC50 was 1 to 10 µM at ABCB4 WT, above 25 µM at ABCA4 P1380L and 1 to 10 µM at ABCD2 WT.

Consider `Cc1cc(C)c(Oc2nc(-c3cncc(Cl)c3)ccc2NS(=O)(=O)c2cccnc2)c(C2CC2)c1` [Compound I-54], for which the figures for the EC50 at ABCB4 WT, at ABCA4 P1380L and at ABCD2 WT were at least 25 µM, below 25 µM and 1 to 10 µM, respectively.

With `Cc1cc(C)c(Oc2nc(-c3cncc(Cl)c3)ccc2NS(=O)(=O)Cc2ccccc2)c(C)c1` [Compound I-65], the values for the 50% effective concentration (EC50) at ABCB4 WT, on ABCA4 P1380L and at ABCD2 WT were at least 25 µM, above 25 µM and above 25 µM, respectively.

Consider `COC1CC(NS(=O)(=O)c2ccc(-c3cncc(Cl)c3)nc2Oc2c(C)cc(C)cc2C)C1` (stereo not drawn) [Compound I-78], for which the EC50 is below 25 µM at ABCB4 WT, 1 to 10 µM on ABCA4 P1380L and 1 to 10 µM at ABCD2 WT.

`Cc1cc(C)c(Oc2nc(-c3cncc(Cl)c3)ccc2S(=O)(=O)NC(c2ccccn2)C(F)(F)F)c(C)c1` (single isomer, unassigned) [Compound I-79]: the EC50 was at least 25 µM at ABCB4 WT, below 25 µM on ABCA4 P1380L and 1 to 10 µM on ABCD2 WT.

For `CNS(=O)(=O)c1ccc(N2CCN(C(=O)C3CC3)CC2)nc1Oc1c(C)cc(C)cc1C` [Compound I-73], the EC50 at ABCB4 WT is below 1 µM; on ABCA4 P1380L, below 1 µM; at ABCD2 WT it was 1 to 10 µM.

As to `Cc1cc(C)c(Oc2nc(-c3cncc(Cl)c3)ccc2NS(C)(=O)=O)c(C)n1` [Compound I-46], the EC50 on ABCB4 WT is below 25 µM; on ABCA4 P1380L, below 1 µM; at ABCD2 WT, below 1 µM.

Consider `Cc1ccc(Oc2nc(-c3cncc(C#N)c3)ccc2NS(C)(=O)=O)c(C)n1` [Compound I-3], for which the EC50 is below 1 µM at ABCB4 WT, below 1 µM at ABCA4 P1380L and 1 to 10 µM at ABCD2 WT.

The record behind these values is US20250228835A1, “PYRIDINYLOXYPYRIDINES AND RELATED COMPOUNDS AND THEIR USE IN TREATING MEDICAL CONDITIONS” (Rectify Pharmaceuticals, Inc., priority 2024, published 2025).
